Measured values taken from PMC8635108, “Identification of Novel Type Three Secretion System (T3SS) Inhibitors by Computational Methods and Anti-Salmonella Evaluations” (Frontiers in Pharmacology, 2021).
Values after ≈ are worked out from the molar mass of the structure shown.

What was measured:
Type in all cases: cell-based
[1] = tested on: S. typhimurium in RAW 264.7 cells; assay: Intracellular killing assay; conditions: 1 h, vs non-treated S. typhimurium group
Method: The intracellular killing experiment was performed according to the previous reported protocol ([Birhanu et al., 2018]). RAW 264.7 cells (10^5 cells/ml) were cultured in 24-well plates, and then treated with S. Typhimurium (10^7 CFU/ml) and further incubated for 45 min. After the cells were washed, the compound 5 (8 μg/ml), […] (19 μg/ml) and 32 (34 μg/ml) or gatifloxacin (3 μg/ml) were respectively added and incubated for 1 h at 37 °C. Finally, cells were treated with gentamicin (100 μg/ml) for 1 h and lysed with 0.1% of trition × 100 before being serially diluted and plated on LB agar. The cells infected with S. Typhimurium without treatment was used as the control.

[2] = In vitro cytotoxicity assay (MTT); conditions: mouse, RAW 264.7 cells, read-out: cell viability
Method: To study the cytotoxic effects of compounds on cell viability, the RAW 264.7 cells were seeded into 96-well plates at 1 ×10^4 cells/well and allowed to attach for 24 h. The medium was replaced with 100 μL medium containing the indicated concentrations of compounds and further incubated for 24 h. Each well was added 10 μL MTT (5 mg/ml in PBS) and the plates were incubated for 4 h at 37°C. Supernatants were aspirated and formed formazan was dissolved in 100 μL of dimethyl sulfoxide (DMSO). The optical density (OD) was measured at an absorbance wavelength of 490 nm using a Microplate Reader (Tecan, Switzerland).

[3] = tested on: S. paratyphi; assay: In vitro anti-Salmonella bioassay (MIC); conditions: Salmonella enterica, 24 h
Method: (§1) The anti-Salmonella activities of these compounds were performed according to the previous reported protocol ([Wei et al., 2016]), using the minimum inhibitory concentration (MIC) with different strains, including S. enteritidis, S. typhi, S. typhimurium, S. paratyphi, S. and abortus equi. Gatifloxacin was used as positive controls. The test compounds 5, 19, and 32 in DMSO were prepared and then poured into 96-well plates. The final concentration of o.39–100 μg/ml underwent a twofold serial dilution. The bacteria were incubated with a series of different concentrations of compounds at 37°C for 24 h. The microbacterial growth was measured at the absorption of 630 nm. All experiments were carried out in triplicate.

[4] = tested on: S. abortus equi; assay: In vitro anti-Salmonella bioassay (MIC); conditions: Salmonella enterica, 37°C 24 h, mean ± SD, three times
Method: as §1

[5] = tested on: S. typhi; assay: In vitro anti-Salmonella bioassay (MIC); conditions: Salmonella enterica, 37°C 24 h, mean ± SD, three times
Method: as §1

[6] = tested on: S. enteritidis; assay: In vitro anti-Salmonella bioassay (MIC); conditions: Salmonella enterica, 37°C 24 h, mean ± SD, three times
Method: as §1

[7] = tested on: S. typhimurium; assay: In vitro anti-Salmonella bioassay (MIC); conditions: Salmonella enterica, 37°C 24 h, mean ± SD, three times
Method: as §1

[8] = tested on: S. typhimurium invasion of human epithelial cell line (Henle 407); assay: Salmonella invasion assay; conditions: Henle 407 cells, triplicate
Method: The effect of T3SS inhibitor candidates on the ability of S. typhimurium to invade a cultured human epithelial cell line (Henle 407) was performed in a method similar to one previously described ([Chatterjee et al., 2011]). Henle 407 cells were grown in DMEM with 10% fetal calf serum at 37°C in 5% CO2 in 24-well plates. The plasmid pRK2-SipD with WT SipD was electroporated into the S. typhimurium SipD ^− strain and single colonies were inoculated into LB media supplemented with 25 mg/L trimethoprim, 50 mg/L ampicillin, 50 mg/L kanamycin and grown in standing cultures overnight. A 10 ml LB culture with 1 mM IPTG was inoculated with 1 ml of overnight bacterial growth, and incubated at 37°C on standing for 2.5–3 h. Approximately 15–30 uL of bacterial suspension was added with 300 uL DMEM into the Henle 407 cells and incubated at 37°C for 60 min to allow invasion before the suspension was removed by aspiration. The Henle 407 cells were incubated with fresh DMEM with 100 mg/L of gentamycin for 1.5 h, aspirated, rinsed with DMEM, and lysed with 1% Triton X-100 to free the entrapped bacteria. The number of bacterial colonies, which correlated with invasiveness, was estimated by serial dilution and plating. The Salmonella invasion assay was done in triplicate.

O=C(O)c1ccc(Cn2nnc3sc4c(c3c2=O)CCCC4)cc1 [Compound 5]
decrease of intracellular survival of S. typhimurium ([1]; 8 μg/ml): 44.4%
viability at 24 h, 8 μg/ml ([2]; 8 μg/ml): 84.2 ± 5.45%
MIC [3]: 24.3 ± 3.5 µg/mL (≈ 71.2 µM)
MIC [4]: 5 ± 1 µg/mL (≈ 14.6 µM)
MIC [5]: 12.3 ± 2.1 µg/mL (≈ 36 µM)
MIC [6]: 31.6 ± 3.6 µg/mL (≈ 92.6 µM)
MIC [7]: 8 ± 2 µg/mL (≈ 23.4 µM)
effect on invasiveness [8]: most drastic effect on the invasiveness

Nc1c(S(=O)(=O)O)ccc2c1C(=O)c1ccccc1C2=O [Compound 19]
decrease of intracellular survival of S. typhimurium ([1]; 19 μg/ml): 32.5%
viability at 24 h, 19 μg/ml ([2]; 19 μg/ml): 91.5 ± 7.09%
MIC [3]: 16.3 ± 3.1 µg/mL (≈ 53.7 µM)
MIC [4]: 3 ± 1 µg/mL (≈ 9.89 µM)
MIC [5]: 31.6 ± 5 µg/mL (≈ 104 µM)
MIC [6]: 53.3 ± 4.9 µg/mL (≈ 176 µM)
MIC [7]: 19.1 ± 3.1 µg/mL (≈ 63 µM)
effect on invasiveness [8]: most drastic effect on the invasiveness

Nc1c(-c2ccc(Cl)cc2)cnn1-c1ccc(C(=O)O)cc1 [Compound 32]
decrease of intracellular survival of S. typhimurium ([1]; 34 μg/ml): 52.2%
viability at 24 h, 34 μg/ml ([2]; 34 μg/ml): 86.4 ± 6.04%
MIC [3]: 22 ± 2.6 µg/mL (≈ 70.1 µM)
MIC [4]: 1.2 ± 0.3 µg/mL (≈ 3.82 µM)
MIC [5]: 44 ± 4.6 µg/mL (≈ 140 µM)
MIC [6]: 22 ± 3 µg/mL (≈ 70.1 µM)
MIC [7]: 34.3 ± 3.8 µg/mL (≈ 109 µM)
effect on invasiveness [8]: most drastic effect on the invasiveness

COc1c(N2CCNC(C)C2)c(F)cc2c(=O)c(C(=O)O)cn(C3CC3)c12 (stereo not drawn) [Gatifloxacin, reference compound]
intracellular survival suppression of S. typhimurium ([1]; 3 μg/ml): 60.2%
MIC [3]: 3 ± 1.7 µg/mL (≈ 7.99 µM)
MIC [4]: 2 ± 1 µg/mL (≈ 5.33 µM)
MIC [5]: 9.7 ± 2.5 µg/mL (≈ 25.8 µM)
MIC [6]: 7.7 ± 1.5 µg/mL (≈ 20.5 µM)
MIC [7]: 3.3 ± 1.2 µg/mL (≈ 8.79 µM)
